Calls of active or inactive are those of the source.
Legend:
Nonstructural protein 1 = Nonstructural protein 1 (Influenza A virus, UniProt Q194T2); format: functional, Influenza A virus (A/California/07/2009(H1N1))
[1] = viability of uninfected HEp-2 cells – cell-based, HTS, cytotoxicity control for RSV inhibitor project, dose response (AID 2410); format: functional; settings: human respiratory syncytial virus
[2] = Trypanosoma cruzi growth suppression in host cells – NIH3T3 host cells, beta-gal luminescence, confirmation (AID 2044); format: functional, cell-based;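 further: intracellular parasites grown in NIH/3T3 mouse fibroblasts as host cells; luminescent beta-galactosidase reporter signal from transgenic T. cruzi replicating inside host cells; inhibitors lower the luminescence signal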
[3] = target: T1, Calpain-2 catalytic subunit (Sus scrofa, UniProt P43367); test: m-calpain protease blockers, concentration series – biochemical, fluorogenic peptide substrate, dose response (AID 1420); format: functional
T1 sequence (P43367 whole entry): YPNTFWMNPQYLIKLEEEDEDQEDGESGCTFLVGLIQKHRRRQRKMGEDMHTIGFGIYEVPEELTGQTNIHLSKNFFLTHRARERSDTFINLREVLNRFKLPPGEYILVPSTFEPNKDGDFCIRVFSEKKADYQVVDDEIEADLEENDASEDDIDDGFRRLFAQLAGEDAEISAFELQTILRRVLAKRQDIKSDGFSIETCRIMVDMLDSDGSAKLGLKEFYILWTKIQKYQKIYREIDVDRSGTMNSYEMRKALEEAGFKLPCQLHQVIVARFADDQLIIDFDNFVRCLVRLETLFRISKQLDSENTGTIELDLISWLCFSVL

[4] = NIH3T3 cell viability loss – ATP luminescence, mouse fibroblasts, counter-screen, dose response (AID 2010); format: functional, cell-based;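 further: cells exposed to compound for about 90 hours before reading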
[5] = viability of PTEN-deleted HCT116 cells – cell-based, HCT116 PTEN knockout, dose response (AID 1047); format: functional;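 further: HCT116 colon tumor cells with PTEN knocked out; cells exposed to compound for 60 hours before readout; potency for loss of cell viability measured by luminescence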
[6] = viability of HCT116 lacking mutant beta-catenin – cell-based, human colon tumor, dose response (AID 1045); format: functional;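 further: HCT116 colon tumor cells with beta catenin knocked out; cells exposed to compound for 60 hours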
[7] = target: Induced myeloid leukemia cell differentiation protein Mcl-1 (Homo sapiens, UniProt Q07820); format: functional
Induced myeloid leukemia cell differentiation protein Mcl-1, sequence (Q07820 whole entry): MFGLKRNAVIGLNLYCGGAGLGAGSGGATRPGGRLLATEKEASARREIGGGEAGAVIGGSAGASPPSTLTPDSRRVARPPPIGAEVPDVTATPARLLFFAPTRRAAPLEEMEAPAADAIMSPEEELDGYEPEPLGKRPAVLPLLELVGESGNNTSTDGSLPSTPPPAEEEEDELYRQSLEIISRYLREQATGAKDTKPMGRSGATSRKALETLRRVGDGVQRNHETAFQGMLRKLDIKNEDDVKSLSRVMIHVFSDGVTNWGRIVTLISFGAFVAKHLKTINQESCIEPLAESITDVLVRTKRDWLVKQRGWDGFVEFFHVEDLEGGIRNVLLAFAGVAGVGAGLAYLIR

[8] = target: T2, Heat shock factor protein 1 (Mus musculus, UniProt P38532); test: enhancement of HSF1-driven luciferase signal – cell-based, NIH3T3, luminescence, dose retest, confirmation (AID 435004); format: functional;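 further: stress induced by proteasome inhibitor MG132 added 30 min after compound; luciferase reporter driven by HSF1 response element in NIH3T3 cells; actives raise luminescence as potentiators of the MG132 stress response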
T2 sequence (P38532 whole entry): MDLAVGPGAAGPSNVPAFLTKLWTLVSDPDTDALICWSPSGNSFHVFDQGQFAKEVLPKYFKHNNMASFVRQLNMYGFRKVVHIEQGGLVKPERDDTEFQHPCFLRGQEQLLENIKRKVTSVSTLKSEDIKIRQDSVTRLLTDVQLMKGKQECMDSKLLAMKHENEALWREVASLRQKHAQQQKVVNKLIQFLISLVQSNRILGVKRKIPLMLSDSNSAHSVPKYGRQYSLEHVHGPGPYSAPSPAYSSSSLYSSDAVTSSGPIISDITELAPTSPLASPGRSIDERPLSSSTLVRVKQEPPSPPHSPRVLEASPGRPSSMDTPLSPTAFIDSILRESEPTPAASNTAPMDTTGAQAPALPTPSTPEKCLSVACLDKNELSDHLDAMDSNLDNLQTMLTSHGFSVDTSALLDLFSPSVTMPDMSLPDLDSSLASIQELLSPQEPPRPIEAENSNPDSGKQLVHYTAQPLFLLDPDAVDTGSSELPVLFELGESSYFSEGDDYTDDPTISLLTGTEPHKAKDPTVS

[9] = target: Luciferin 4-monooxygenase (Photinus pyralis, UniProt P08659); test: inhibition of purified Photinus pyralis luciferase – biochemical, luminescence, dose response (AID 1891)
Luciferin 4-monooxygenase, sequence (P08659 whole entry): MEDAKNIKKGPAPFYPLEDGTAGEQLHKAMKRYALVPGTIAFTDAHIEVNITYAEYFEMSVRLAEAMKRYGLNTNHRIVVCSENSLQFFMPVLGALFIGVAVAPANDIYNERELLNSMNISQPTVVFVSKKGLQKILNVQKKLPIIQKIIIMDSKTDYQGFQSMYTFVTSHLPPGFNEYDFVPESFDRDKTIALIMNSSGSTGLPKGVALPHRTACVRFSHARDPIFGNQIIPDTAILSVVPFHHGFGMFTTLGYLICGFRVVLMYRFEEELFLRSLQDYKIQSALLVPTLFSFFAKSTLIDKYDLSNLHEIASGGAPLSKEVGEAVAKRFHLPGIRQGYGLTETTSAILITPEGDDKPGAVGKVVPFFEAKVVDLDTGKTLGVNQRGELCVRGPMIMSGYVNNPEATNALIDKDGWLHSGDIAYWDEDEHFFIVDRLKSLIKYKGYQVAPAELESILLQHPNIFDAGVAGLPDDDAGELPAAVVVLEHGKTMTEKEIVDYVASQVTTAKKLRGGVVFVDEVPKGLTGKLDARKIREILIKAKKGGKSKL

[10] = Luminescence Cell-Based Dose Confirmation HTS to Identify Inhibitors of Platelet Dense Granule Release. [Related pubchem assays: 1663 (Primary HTS), 1678 (Summary of Project)]; format: functional
[11] = microbe, parasite or virus in culture; format: functional; settings: Mycobacterium tuberculosis
Genome polyprotein = Genome polyprotein (dengue virus type 2, UniProt P29990); test: flavivirus cap methylation enzyme inhibition – biochemical, confirmation dose response, primary screen (AID 588689); format: functional
Genome polyprotein, sequence (P29990 2492-3391 limits assumed): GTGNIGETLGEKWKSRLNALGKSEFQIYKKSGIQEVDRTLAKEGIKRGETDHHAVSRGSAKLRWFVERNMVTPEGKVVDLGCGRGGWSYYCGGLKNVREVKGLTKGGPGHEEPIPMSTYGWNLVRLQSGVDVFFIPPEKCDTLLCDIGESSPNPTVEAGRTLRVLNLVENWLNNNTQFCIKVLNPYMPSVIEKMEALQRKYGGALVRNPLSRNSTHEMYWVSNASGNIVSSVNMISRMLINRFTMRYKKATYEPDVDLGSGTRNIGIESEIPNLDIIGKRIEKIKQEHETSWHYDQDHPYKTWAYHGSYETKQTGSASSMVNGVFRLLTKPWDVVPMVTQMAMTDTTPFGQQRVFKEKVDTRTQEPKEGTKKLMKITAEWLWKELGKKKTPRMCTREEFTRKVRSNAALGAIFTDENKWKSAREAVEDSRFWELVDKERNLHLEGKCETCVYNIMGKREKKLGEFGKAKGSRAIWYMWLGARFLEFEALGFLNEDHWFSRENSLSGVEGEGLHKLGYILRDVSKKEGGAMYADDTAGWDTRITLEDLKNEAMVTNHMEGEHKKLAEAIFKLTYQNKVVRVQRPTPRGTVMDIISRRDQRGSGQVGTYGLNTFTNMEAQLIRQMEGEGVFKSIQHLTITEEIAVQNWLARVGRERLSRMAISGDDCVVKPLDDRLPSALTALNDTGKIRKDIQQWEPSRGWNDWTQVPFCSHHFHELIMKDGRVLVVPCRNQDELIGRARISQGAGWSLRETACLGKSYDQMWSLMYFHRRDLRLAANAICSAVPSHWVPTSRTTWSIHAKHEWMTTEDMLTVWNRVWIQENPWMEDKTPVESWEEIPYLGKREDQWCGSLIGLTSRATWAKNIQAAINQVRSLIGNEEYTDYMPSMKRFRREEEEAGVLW

[12] = test system: Streptococcus sp. 'group A'; test: Streptococcus pyogenes SK(-)GAS viability under kanamycin – luminescence, BacTiterGlo, confirmation, counter-screen for streptokinase expression inhibitor project, dose response (AID 1900); format: functional, organism-based
Streptokinase A = target: T3, Streptokinase A (Streptococcus pyogenes serotype M1, UniProt P10520); test: viability-normalized secreted streptokinase activity reduction – plasminogen activation absorbance, OD405, dose response (AID 1914); format: functional, Streptococcus pyogenes M1 GAS;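 further: secreted streptokinase activity via plasminogen activation per viability signal from cell pellet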
T3 sequence (P10520 whole entry): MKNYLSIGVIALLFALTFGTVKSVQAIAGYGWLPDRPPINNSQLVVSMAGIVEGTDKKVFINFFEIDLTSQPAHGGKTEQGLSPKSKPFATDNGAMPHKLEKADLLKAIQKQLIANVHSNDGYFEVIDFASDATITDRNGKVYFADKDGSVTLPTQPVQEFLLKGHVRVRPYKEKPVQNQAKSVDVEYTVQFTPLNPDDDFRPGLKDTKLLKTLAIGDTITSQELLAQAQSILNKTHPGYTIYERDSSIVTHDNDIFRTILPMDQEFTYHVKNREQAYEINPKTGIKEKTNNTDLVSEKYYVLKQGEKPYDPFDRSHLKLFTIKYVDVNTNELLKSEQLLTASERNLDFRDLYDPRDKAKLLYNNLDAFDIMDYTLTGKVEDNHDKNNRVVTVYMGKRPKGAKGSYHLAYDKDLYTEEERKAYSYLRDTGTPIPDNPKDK

Streptococcus = test: GAS UMAA2166 growth inhibition – luminescence, BacTiterGlo, counter-screen for streptokinase expression inhibitor project, dose response (AID 1915); format: functional, organism-based;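 further: potency for reduction of bacterial viability or growth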
[13] = Luminescence Cell-Based Dose Retest to Confirm Inhibitors of Cancer Stem Cells. [Related pubchem assays (depositor defined):AID2717, AID2721]; format: functional; settings: Homo sapiens
Aminopeptidase N = target: T4, Aminopeptidase N (Plasmodium falciparum FcB1/Columbia, UniProt O96935); test: malaria alanyl aminopeptidase activity blockers – biochemical, fluorogenic H-Leu-NHMec substrate, 1536-well (AID 1445); design: species or system Plasmodium falciparum 3D7, 3D7
T4 sequence (O96935 whole entry): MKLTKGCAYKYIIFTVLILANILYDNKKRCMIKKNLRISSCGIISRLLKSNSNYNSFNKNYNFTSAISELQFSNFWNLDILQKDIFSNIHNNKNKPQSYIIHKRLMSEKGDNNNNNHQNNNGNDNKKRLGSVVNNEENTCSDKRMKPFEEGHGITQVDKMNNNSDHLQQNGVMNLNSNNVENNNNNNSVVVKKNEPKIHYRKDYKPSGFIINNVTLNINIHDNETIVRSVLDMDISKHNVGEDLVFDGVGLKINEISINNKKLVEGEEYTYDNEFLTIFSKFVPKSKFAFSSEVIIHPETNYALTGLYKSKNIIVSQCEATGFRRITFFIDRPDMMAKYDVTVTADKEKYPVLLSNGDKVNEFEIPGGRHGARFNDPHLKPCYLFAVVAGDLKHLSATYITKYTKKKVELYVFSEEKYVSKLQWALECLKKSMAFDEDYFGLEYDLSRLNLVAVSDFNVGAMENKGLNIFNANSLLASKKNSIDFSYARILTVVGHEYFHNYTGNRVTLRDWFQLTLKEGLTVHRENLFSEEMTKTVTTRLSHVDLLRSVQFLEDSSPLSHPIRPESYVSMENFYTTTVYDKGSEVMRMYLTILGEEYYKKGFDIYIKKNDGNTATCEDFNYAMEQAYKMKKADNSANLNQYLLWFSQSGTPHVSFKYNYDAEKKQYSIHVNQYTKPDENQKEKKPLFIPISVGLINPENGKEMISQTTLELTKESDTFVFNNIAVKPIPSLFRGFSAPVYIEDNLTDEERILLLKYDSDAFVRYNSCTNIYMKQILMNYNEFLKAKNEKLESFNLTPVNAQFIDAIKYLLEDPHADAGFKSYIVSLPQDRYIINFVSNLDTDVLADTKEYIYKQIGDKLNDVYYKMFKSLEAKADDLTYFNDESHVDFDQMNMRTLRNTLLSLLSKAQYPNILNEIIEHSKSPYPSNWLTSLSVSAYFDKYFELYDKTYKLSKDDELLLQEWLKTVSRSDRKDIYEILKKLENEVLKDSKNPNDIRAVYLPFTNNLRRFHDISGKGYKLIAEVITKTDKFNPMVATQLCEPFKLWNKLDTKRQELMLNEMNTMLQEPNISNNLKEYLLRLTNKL

[14] = target: Heat shock protein HSP 90-alpha (Homo sapiens, UniProt P07900); format: functional, organism-based
[15] = blockers of HIV-1 envelope-mediated cell-cell fusion – cherry-pick, dose response (AID 652057); format: functional, cell-based
[16] = HIV-1 AD8 envelope cell-cell fusion blockers – cherry-pick, dose response (AID 652062); format: functional, cell-based;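 further: luciferase signal from cell-cell fusion driven by HIV-1 clade B AD8 Env; potency is for inhibitors of fusion seen as a drop in luminescence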
[17] = blockers of HIV-1 ZM109 envelope-driven cell-cell fusion – HeLa effector, CEM target cells, luciferase, cherry-pick, dose response (AID 652058); format: functional, cell-based;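 further: luciferase signal from HIV-1 Env mediated cell-cell fusion of effector and target cells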

Nonstructural protein 1, sequence (Q194T2 whole entry): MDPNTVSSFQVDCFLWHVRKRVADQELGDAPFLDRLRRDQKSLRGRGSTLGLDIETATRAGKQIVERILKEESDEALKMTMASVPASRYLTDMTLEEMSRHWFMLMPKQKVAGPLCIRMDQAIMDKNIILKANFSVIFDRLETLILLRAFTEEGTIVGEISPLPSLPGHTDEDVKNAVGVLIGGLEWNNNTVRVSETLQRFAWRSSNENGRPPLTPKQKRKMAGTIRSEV

## CN1C(=S)N(c2cccnc2)C(=O)/C1=C\c1ccc(N(C)C)cc1
Nonstructural protein 1
  IC50: > 100 µM (active)

## COC(=O)C(NC(=O)c1ccccc1C)(Nc1ncc(S(=O)(=O)c2ccc([N+](=O)[O-])cc2)s1)C(F)(F)F (configuration not stated)
[1]
  CC50: 12.4 µM (active)

## O=C(NCCC1=CCCCC1)c1ccc2c(c1)N(Cc1ccccc1)C(=O)CS2
[2]
  EC50: 2.88 µM (active)
[3]
  IC50: 5.5 µM (not active)
[4]
  EC50: > 30 µM (not active)

## O=C(Nc1nccs1)c1cccc(N2C(=O)c3cccc4c([N+](=O)[O-])ccc(c34)C2=O)c1
[5]
  EC50: 3.77 µM (active)
[6]
  EC50: 2.23 µM (active)
[7]
  IC50: 1.45 µM (not active)
[8]
  EC50: 8.49 µM (active)

## Cc1cccc(N=C(S)NCc2ccncc2)c1C
[9]
  EC50: > 112 µM (not active)
[10]
  EC50: > 112 µM (not active)

## CSc1ccccc1C(=O)Nc1nc2ccccc2[nH]1
[9]
  EC50: > 112 µM (not active)
[10]
  EC50: > 112 µM (not active)

## Clc1ccc(NNc2ccnc3cc(Cl)ccc23)cc1
[11]
  CC50: > 40 µM (active)
Nonstructural protein 1
  IC50: 34.6 µM (active)

## COc1ccc(C(C2C(=O)CC(C)(C)CC2=O)C2C(=O)CC(C)(C)CC2=O)cc1CO
Genome polyprotein
  IC50: 45.8 µM (active)

## NC(=O)CSc1cn(Cc2ccc(F)cc2)c2ccccc12
[9]
  EC50: > 112 µM (not active)
[10]
  EC50: > 112 µM (not active)

## Cc1cc2ccccc2n1CCNC(=O)COc1ccc2ccccc2c1
[1]
  CC50: 21.4 µM (active)

## Fc1ccc(CSc2nc3ccccc3[nH]2)c2ccccc12
[12]
  EC50: 8.67 µM (active)
Streptokinase A
  EC50: 14.1 µM (active)
[3]
  IC50: 2.61 µM (not active)
Streptococcus
  EC50: 13.9 µM (active)
[13]
  AC50: 5.37 µM (active)

## Cc1ccc(-c2nnc(CSc3nc(C(C)C)nc4sc(C)c(C)c34)o2)cc1
[9]
  EC50: > 112 µM (not active)
[10]
  EC50: > 112 µM (not active)

## O=C(Nc1nc(-c2ccccc2)cs1)C1CCCN(S(=O)(=O)c2ccccc2)C1 (configuration not stated)
[1]
  CC50: 2.26 µM (active)
[2]
  EC50: 2.68 µM (active)
[4]
  EC50: > 30 µM (not active)

## Cc1ccc2c(c1)c1nnc(SCC(=O)Nc3ccccc3C(F)(F)F)nc1n2CC(=O)O
Aminopeptidase N
  IC50: 18.6 µM (active)

## CCC(CC)c1nnc(NC(=O)CCNC(=O)c2ccccc2Cl)s1
[9]
  EC50: > 112 µM (not active)
[10]
  EC50: > 112 µM (not active)

## CCCOc1ccc(/C=C2/C(=O)ON=C2C)cc1OCC
Genome polyprotein
  IC50: 29 µM (active)

## CCn1c(NCc2cc(Cl)ccc2O)nc2ccccc21
[1]
  CC50: 44.7 µM (active)

## COc1cccc(C=NNC(=O)c2ccncc2)c1O
Nonstructural protein 1
  IC50: 6.26 µM (active)

## CCCCCCCC1=NN(c2ccc(S(=O)(=O)O)cc2)C(=O)C1N=O (configuration not stated)
Genome polyprotein
  IC50: 27.4 µM (active)

## CCN1CCCC1CN(Cc1cc2ccc(C)cc2nc1O)C(S)=Nc1ccc(F)cc1 (configuration not stated)
[14]
  AC50: 2.64 µM (active)

## O=C(O)c1ccc(N=N/C(=N\Nc2ccc(C(=O)O)cc2)c2ccccc2)cc1
Genome polyprotein
  IC50: 30.4 µM (active)

## Oc1ccc(/C=N/NC(=S)N/N=C/c2ccc(O)cc2)cc1
[9]
  EC50: 0.316 µM (active)
[10]
  EC50: 0.317 µM (active)

## COc1ccc(S(=O)(=O)Nc2ccc3c(c2)CC(=O)N([C@H](C)CO)C[C@H](C)[C@H](CN(C)S(=O)(=O)c2ccccc2)O3)cc1
[15]
  AC50: < 0.26 µM (active)
[16]
  AC50: 2.09 µM (active)

## Cc1noc(C)c1S(=O)(=O)N(C)C[C@@H]1Oc2ccc(NC(=O)NC3CCCCC3)cc2CC(=O)N([C@H](C)CO)C[C@@H]1C
[15]
  AC50: 5.98 µM (active)
[17]
  AC50: 4.3 µM (active)
[16]
  AC50: 4.26 µM (active)

## C/C(=N\Nc1nc(C(=O)O)cs1)c1ccccc1
Aminopeptidase N
  IC50: 34.2 µM (active)

## O=C(O)/C(CC(=O)c1ccc(Cl)cc1)=N/Nc1ccc([N+](=O)[O-])cc1[N+](=O)[O-]
Genome polyprotein
  IC50: 12.5 µM (active)

## C=CC(=O)Nc1cccc(Oc2ccnc(Nc3ccc(N4CCN(C)CC4)cc3)n2)c1
Nonstructural protein 1
  IC50: 23.1 µM (active)

## Cc1ccc(/C=N/NC(=O)C(O)c2ccccc2)o1 (configuration not stated)
[9]
  EC50: > 112 µM (not active)
[10]
  EC50: > 112 µM (not active)

## Cc1ccc(NC(C)C(=O)N/N=C/c2c[nH]c3ccccc23)cc1 (configuration not stated)
[9]
  EC50: > 112 µM (not active)
[10]
  EC50: > 112 µM (not active)

Reference: ChEMBL document CHEMBL1201862, “PubChem BioAssay data set” (2004)
